Results published in publication PMC5923171, “Novel Zinc-Attenuating Compounds as Potent Broad-Spectrum Antifungal Agents with In Vitro and In Vivo Efficacy” (Antimicrobial Agents and Chemotherapy, 2018).
In brackets after ≈: the same amount, converted by molar mass. Marks after values point to notes of the source that are not given here.

Assays:
[1] = cited from earlier work
[2] = Human hepatocyte (HepG2) proliferation assay; type: cell-based; conditions: human, HepG2 cells, XTT; for EC50 at 24 h: 24 h exposure; for EC50 at 72 h: 72 h exposure
Description: In each well of a 96-well tissue culture plate (GR-655180; Grenier), 10,000 human hepatocytes (HepG2) (85011430; […] Sigma]) supplemented with 2 mM L-[…]-020-1B; Biological Industries), 1% nonessential amino acids (XC-[…]/100; Biosera), and 10% fetal bovine serum (BI-04-007-1A; Biological Industries), and plates were incubated overnight at 37°C and 5% CO2. […] The plate was incubated for a further 24 h or 72 h at 37°C and 5% CO2. The medium was then replaced with 100 μl of freshly prepared 2,3-bis-(2-methoxy-4-nitro-5-sulfophenyl)-2H-tetrazolium-5-carboxanilide salt (XTT) sodium salt solution (0.5 mg/ml of XTT; […]; Sigma) in RPMI 1640 ([…]; Sigma-Aldrich) with 3.83 μg/ml of phenazine methosulfate ([…]; Sigma-Aldrich) and incubated 2 to 3 h at 37°C and 5% CO2 ([43]). The color reaction was measured on Victor X5 plate reader (Perkin-Elmer) at OD450, and the half-maximal effective concentration (EC50) was calculated. Tamoxifen (85256; Sigma) was used as a positive-control compound.

C. albicans SC5314 = assay: Time-kill assay; type: cell-based, Candida albicans; conditions: 0.5 μg/ml AMB, 3.6 μg/ml ZAC989, 4.4 μg/ml EDTA, 4.2 μg/ml TPEN; up to 24 h
Description: C. albicans SC5314 cells (10^5 CFU/ml) were incubated in 10 ml of RPMI medium at 30°C with gentle agitation (150 rpm) in the presence of EDTA (15 μM), TPEN (10 μM), ZAC989 (10 μM), or AMB (0.5 μM). At the desired time points (0, 3, 5.5, and 24 h), a 100-μl aliquot was removed for each test condition and serially diluted (10-fold) in saline (0.9% NaCl), and 30 μl of each dilution was plated on YPD agar plates. The colony count on each YPD plate was determined after incubation at 30°C for 48 h ([40]). C. albicans cells treated with DMSO (1%, vol/vol) served as a control.

[3] = Potentiometric titration with MgCl2; type: binding; conditions: DMSO-water (70:30, vol/vol)
Candida albicans SC5314 = assay: In vivo fungal kidney burden candidiasis model; set-up: species or system BALB/c mice; conditions: for Mean log CFU/kidney / Mean log CFU/kidney reduction: 60 mg/kg i.p. twice a day; for Mean log CFU/kidney reduction: vs untreated control; for adverse effects following dosing: 60 mg/kg i.p., mice
Description: A murine model of systemic candidiasis was established according to a previously described method ([44]). BALB/c mice were infected with a 0.1-ml inoculum (1 × 10^5 to 5 × 10^5 CFU) of Candida albicans SC5314 cells by the intravenous route on day 0. Compounds were tested at doses of 60 mg/kg. Administration of compound was initiated 24 h prior (day −1) to infection (day 0) by the intraperitoneal route, dosing twice a day for 4 days (day −1 to day 2). ZAC307 was also evaluated with administration of the compounds given after the infection at day 0 (no pretreatment) and following dosing twice a day for 3 days (days 0 to 2). Fluconazole was used as a comparator drug. Six mice were used for each group, and the untreated control group was exposed to the vehicle alone. ZAC989 and ZAC307 were formulated by taking 60 mg of compound and adding this to 2 ml and 4 ml of 0.1 N NaOH, respectively. After mixing and sonication of the resulting solutions, 4 ml of purified water was added. The pH was adjusted to 9.0 with 0.1 N HCl solution, followed by the addition of 90 mg of NaCl. The solutions were then diluted to 10 ml and filtered through a 0.22-μm polyvinylidene difluoride (PVDF) filter. Sample collection and processing were performed as follows. Twelve hours after the last dose, all treated and untreated animals were sacrificed by cervical dislocation and kidneys were collected in 3 ml of sterile normal saline. The samples were homogenized, serially diluted, and plated on Sabouraud dextrose agar (SDA). SDA plates were incubated for 24 to 48 h at 35°C, and CFU were enumerated and reported as log CFU/kidney. The endpoint was mean log CFU of fungi in kidneys of treated animals compared to that of untreated animals. The study was conducted in conformance with an application submitted to the Committee for the Purpose of Control and Supervision of Experiments on Animals (CPCSEA), New Delhi, India, after approval from the Institutional Animal Ethics Committee (IAEC).

[4] = system: A. fumigatus AF54 (ΔzrfC); assay: Growth capacity in sRPMI zinc-limiting medium, 24-well plates; type: cell-based, Aspergillus fumigatus; conditions: average, either with or without simultaneous exposure to ZAC307 or ZAC989
Description: (§1) Growth capacity experiments with A. fumigatus strains AF14, AF54, AF48, AF732, and AF731 were performed in 24-well flat-bottomed tissue culture plates (35-3047; Falcon). A stock solution of 10 mM TPEN (P4413; Sigma) was prepared in pure ethanol. For these experiments, 5 mM stock solutions of ZAC307 and ZAC989 were prepared by dissolving each compound in 80% (vol/vol) ethanol. A 0.5 M stock solution of Na2EDTA·2H2O (1.08421.1000; Merck) was prepared in sterile water. A 1× stock solution (10.4 g/liter) of RPMI 1640 medium (R8755; Sigma) supplemented with 10 μM FeSO4·7H2O, 1 μM CuSO4·5H2O, and 1 μM MnCl2·H2O (sRPMI) was prepared under aseptic conditions and used as standard culture medium. In each well, 1 ml of culture medium containing sRPMI medium, Tween 20, ethanol (or the specified compound dissolved in 80% ethanol), and 10^5 conidia was dispensed to achieve final concentrations of 0.7×, 0.05% (vol/vol), 1.2% (vol/vol), and 10^5 conidia/ml, respectively. Plates were incubated for 44 h at 37°C in a humid atmosphere. To quantitate mycelial growth, each plate was scanned in an Agfa SnapScan 1236s scanner, and the intensity of the wells was quantified using the open-source image processing program Image J2. The data were represented and analyzed with Prism software 7.0.

[5] = system: A. fumigatus AF48 (ΔzrfA ΔzrfB); assay: as above; type: cell-based, Aspergillus fumigatus; conditions: 75 μM compound, 44 h, 37°C
Description: as §1

Row | SMILES | zinc chelation (in words) [1] | EC50 at 24 h [2] [µg/mL] | EC50 at 72 h [2] [µg/mL] | time-kill activity (fungistatic or fungicidal) (C. albicans SC5314) | Mg^2+ binding [3] | Mean log CFU/kidney (Candida albicans SC5314; day −1 to day 2 (pretreatment)) [log CFU/kidney] | Mean log CFU/kidney reduction (Candida albicans SC5314; day −1 to day 2 (pretreatment)) [log CFU/kidney] | adverse effects following dosing (Candida albicans SC5314) | reduction of growth capacity at 2 μM zinc compared to 50 μM zinc [4] [fold] | reduction of growth capacity, 2 μM zinc plus compound compared to 50 μM zinc [5] [fold] | Mean log CFU/kidney (Candida albicans SC5314; days 0 to 2, no pretreatment) [log CFU/kidney] | Mean log CFU/kidney reduction (Candida albicans SC5314; days 0 to 2, no pretreatment)
1 | O=C(O)CN(CCN(CC(=O)O)CC(=O)O)CC(=O)O [EDTA] | very potent zinc chelators | > 28 | > 29 | fungistatic effect within the first 24 h of exposure | – | – | – | – | – | – | – | –
2 | c1ccc(CN(CCN(Cc2ccccn2)Cc2ccccn2)Cc2ccccn2)nc1 [TPEN, N,N,N’,N’-tetrakis(2-pyridylmethyl)-ethylenediamine] | very potent zinc chelators | 1.6 ± 0.2 (≈ 3.77 µM) | 1.4 ± 0.8 (≈ 3.3 µM) | fungistatic effect within the first 24 h of exposure | – | – | – | – | – | – | – | –
3 | Cc1cc(O)n(-c2cc(N3CC[C@H](Oc4cnccc4C#N)C3)ncn2)n1 [ZAC989, 3-[(3S)-1-[6-(5-hydroxy-3-methyl-pyrazol-1-yl)pyrimidin-4-yl]pyrrolidin-3-yl]oxy-pyridine-4-carbonitrile] | – | > 28 | 6.9 ± 0.7 (≈ 19 µM) | – | negligible | 4.09 ± 0.31 | 1.71 | lethargy lasting for 5 to 15 min after dosing | 24.6 | 4.5 | – | –
4 | CN(C)c1cc(-n2nc(-c3ccccc3)cc2O)ncn1 [ZAC307, 2-[6-(dimethylamino)pyrimidin-4-yl]-5-phenyl-pyrazol-3-ol] | – | > 28 | 13.2 ± 0.8 (≈ 46.9 µM) | – | negligible | 4.73 ± 0.19 | 1.06 | no adverse effects | 24.6 | 3.9 | 4.77 ± 0.19 | 1.03* log CFU/kidney
